Measurements: patent US6579881B2 (Eisai Co., Ltd., priority 1997, dated 2003)
Counter-ions that a name gives are not always drawn.

Experiments:
[1] = target: serotonin 2 receptor (Rattus norvegicus, UniProt P14842); test: Binding test on [3H] ketanserin (serotonin 2 receptor); settings: [3H] ketanserin 0.3 nM, receptor fraction of rat cerebral cortex; read-out: 5HT2
[2] = target: T1, serotonin 1A receptor (Rattus norvegicus, UniProt P19327); test: Binding test on [3H] 8-hydroxy-dipropylaminotetralin (serotonin 1A receptor); settings: [3H] 8-OH-DPAT 0.5 nM, receptor fraction of rat hippocampus; read-out: 5HT1a
T1 construct: To the receptor fraction of the hippocampus were added a test compound and 0.5 nM of [^3H]; 8-hydroxy-dipropylaminotetralin; from tissue; host or cells: SD rat hippocampus, membrane (receptor) fraction
T1 sequence (P19327 1-422): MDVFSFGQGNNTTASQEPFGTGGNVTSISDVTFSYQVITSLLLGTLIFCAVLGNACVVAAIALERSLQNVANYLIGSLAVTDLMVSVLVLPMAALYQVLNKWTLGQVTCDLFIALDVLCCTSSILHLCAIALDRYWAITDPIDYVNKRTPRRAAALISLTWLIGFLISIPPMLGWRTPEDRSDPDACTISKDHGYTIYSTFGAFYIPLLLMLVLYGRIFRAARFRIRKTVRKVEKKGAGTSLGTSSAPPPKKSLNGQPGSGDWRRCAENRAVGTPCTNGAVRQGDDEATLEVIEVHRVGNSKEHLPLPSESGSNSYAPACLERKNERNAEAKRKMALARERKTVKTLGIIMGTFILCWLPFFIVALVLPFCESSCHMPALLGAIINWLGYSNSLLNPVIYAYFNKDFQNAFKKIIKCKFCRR

Chain of serotonin 2 receptor (P14842 whole entry): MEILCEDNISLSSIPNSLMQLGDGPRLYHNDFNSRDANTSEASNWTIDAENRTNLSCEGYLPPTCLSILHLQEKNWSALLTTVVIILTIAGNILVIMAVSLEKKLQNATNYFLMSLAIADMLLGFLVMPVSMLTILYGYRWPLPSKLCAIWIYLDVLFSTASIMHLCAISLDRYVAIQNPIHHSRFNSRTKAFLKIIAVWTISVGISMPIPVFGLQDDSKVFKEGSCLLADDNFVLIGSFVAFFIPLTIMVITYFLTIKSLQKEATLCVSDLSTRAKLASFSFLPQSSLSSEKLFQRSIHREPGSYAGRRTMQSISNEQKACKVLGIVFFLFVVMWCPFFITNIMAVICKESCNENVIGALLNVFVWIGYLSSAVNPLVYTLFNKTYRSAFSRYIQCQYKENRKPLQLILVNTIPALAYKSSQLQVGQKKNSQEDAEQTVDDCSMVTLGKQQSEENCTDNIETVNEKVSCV

Row | Ki [1] | Ki [2] | Compound
1 | 4.24 nM | 15.5 nM | CC(C)(C)NC(=O)Cc1ccc2c(c1)N(C1CCN(CCc3ccc(F)cc3)CC1)CC2 [Example 153, 1-[1-(4-fluorophenethyl)piperidin-4-yl]-6-(t-butylcarbamoylmethyl)indoline]
2 | 2.2 nM | 172 nM | COc1ccc2c(c1OC)N(C1CCN(CCc3ccc(F)cc3)CC1)CC2 [Example 108, 1-[1-(4-fluorophenethyl)piperidin-4-yl]-6,7-dimethoxyindoline]
3 | 0.65 nM | 0.95 nM | NC(=S)Cc1ccc2c(c1)N(C1CCN(CCc3ccc(F)cc3)CC1)CC2 [Example 129, 1-[1-(4-fluorophenethyl)piperidin-4-yl]-6-thiocarbamoylmethylindoline]
4 | 56.2 nM | 170 nM | CCN1CC[C@H](N2CCc3ccccc32)[C@@H](COCc2ccc(F)cc2)C1 (relative stereo) [Example 85, trans-1-[1-ethyl-3-(4-fluorobenzyloxymethyl)piperidin-4-yl]indoline]
5 | 0.22 nM | 15.2 nM | Oc1ccc(CCN2CCC(N3CCc4ccccc43)CC2)cc1 [Example 20, 1-[1-(4-hydroxyphenethyl)piperidin-4-yl]indoline]
6 | 60 nM | > 200 nM | CCN1CCC(N2CC(CCc3cccc(OC)c3)c3ccccc32)CC1 (stereo not shown) [Example 246, 1-(1-ethylpiperidin-4-yl)-3-(3-methoxyphenethyl)indoline]
7 | 4.7 nM | 4.5 nM | Fc1ccc(CCN2CCC(N3CCc4cc5c(cc43)OCO5)CC2)cc1 [Example 284, 1-[1-(4-fluorophenethyl)piperidin-4-yl]-5,6-methylenedioxyindoline]
8 | 17.8 nM | 41.9 nM | OCc1ccc(CCN2CCC(N3CCc4ccccc43)CC2)cn1 [Example 55, 1-{1-[2-(2-hydroxymethylpyridin5-yl)ethyl]piperidin-4-yl}indoline]
9 | 1.18 nM | 6.74 nM | O=C(Cc1ccc2ccn(C3CCN(CCc4ccc(F)cc4)CC3)c2c1)NCCc1ccccn1 [Example 315, 1-[1-(4-fluorophenethyl)piperidin-4-yl]-6-[2-(pyridin-2-yl)ethyl]carbamoylmethylindole Oxalate]
10 | 15.2 nM | 0.17 nM | O/N=C/c1ccc2c(c1)N(C1CCN(CCc3ccc(F)cc3)CC1)CC2 [Example 131, 1-[1-(4-fluorophenethyl)piperidin-4-yl]-6-hydroxyiminomethylindoline]
11 | 17.4 nM | > 200 nM | COc1cccc2c1CCN2C1CCN(CCc2ccc(F)cc2)CC1 [Example 105, 1-[1-(4-fluorophenethyl)piperidin-4-yl]-4-methoxyindoline]
12 | 30.3 nM | 3.6 nM | O=C(NCCN1CCC(N2CCc3ccccc32)CC1)c1ccc(F)cc1 [Example 75, 1-[1-(4-fluorobenzamido)ethylpiperidin-4-yl]indoline]
13 | 14.6 nM | 7.4 nM | OCc1ccc(CCN2CCC(N3CCc4ccccc43)CC2)cc1 [Example 23, 1-[1-(4-hydroxymethylphenethyl)piperidin-4-yl]indoline]
14 | 5.9 nM | 0.6 nM | Fc1ccc(CCN2CCC(N3CCc4ccc(Cl)nc43)CC2)cc1 [Example 259, 1-[1-(4-fluorophenethyl)piperidin-4-yl]-6-chloro-7-azaindoline]
15 | 29.9 nM | 54.5 nM | c1ccc2c(c1)CCN2C1CCN(CCc2ccncc2)CC1 [Example 49, 1-{1-[2-(4-pyridyl)ethyl]piperidin-4-yl}indoline]
16 | 2.1 nM | 21.5 nM | COc1cncc(CCN2CCC(N3CCc4ccccc43)CC2)c1 [Example 53, 1-{1-[2-(3-methoxypyridin-5-yl)ethyl]piperidin-4-yl}indoline]
17 | 0.16 nM | 8.18 nM | CC(C)C(=O)NCc1ccc2c(c1)N(C1CCN(CCc3ccc(F)cc3)CC1)CC2 [Example 158, 1-[1-(4-fluorophenethyl)piperidin-4-yl]-6-isobutyrylaminomethylindoline]
18 | 35.1 nM | 6.23 nM | OC1(c2ccc3c(c2)N(C2CCN(CCc4ccc(F)cc4)CC2)CC3)CCC1 [Example 140, 1-[1-(4-fluorophenethyl)piperidin-4-yl]-6-(1-hydroxycyclobutyl)indoline]
19 | 45.8 nM | 1.1 nM | N#Cc1ccc2c(c1)N(C1CCN(CCc3ccc(F)cc3)CC1)CC2 [Example 124, 1-[1-(4-fluorophenethyl)piperidin-4-yl]-6-cyanoindoline]
20 | 14.3 nM | 2.08 nM | NCc1ccc2c(c1)N(C1CCN(CCc3ccc(F)cc3)CC1)CC2 [Example 132, 1-[1-(4-fluorophenethyl)piperidin-4-yl]-6-aminomethylindoline]
21 | > 200 nM | 58.5 nM | CCN1CCN(C2CCc3ccc(OC)cc32)CC1 (stereo not shown) [Example 251, 1-(4-ethylpiperazin-1-yl)-6-methoxyindan Hydrochloride]
22 | 42.7 nM | 1.9 nM | N#Cc1ccc(CCN2CCC(N3CCc4ccccc43)CC2)cc1 [Example 21, 1-[1-(4-cyanophenethyl)piperidin-4-yl]indoline]
23 | 177 nM | > 200 nM | CCN1CCN([C@@H]2c3ccccc3CC2N(C)Cc2ccc(F)cc2)CC1 (stereo partly shown) [Example 254]

Row | Compound | Ki [1] | Ki [2]
24 | NC(=O)c1ccc(CCN2CCC(N3CCc4ccccc43)CC2)cc1 [Example 40, 1-[1-(4-carbamoylphenethyl)piperidin-4-yl]indoline] | > 200 nM | 43.7 nM
25 | COc1ccc2c(c1)N(C1CCN(CCc3ccc4ncsc4c3)CC1)CC2 [Example 233, 1-{1-[2-(6-benzothiazolyl)ethyl]-piperidin-4-yl}-6-methoxyindoline] | > 200 nM | 0.6 nM
26 | COc1ccc(CCN2CCC(N3CCc4ccc(F)cc43)CC2)cc1 [Example 229, 1-[1-(4-methoxyphenethyl)piperidin-4-yl]-6-fluoroindoline] | > 200 nM | 2.5 nM
27 | CC(C)Nc1ccc2c(c1)N(C1CCN(CCc3ccc(F)cc3)CC1)CC2 [Example 113, 1-[1-(4-fluorophenethyl)piperidin-4-yl]-6-isopropylaminoindoline] | > 200 nM | 13.7 nM
28 | Cn1cccc1-c1ccc2ccn(C3CCN(CCc4ccc(F)cc4)CC3)c2c1 [Example 287, 1-[1-(4-fluorophenethyl)piperidin-4-yl]-6-(1-methylpyrrol-2-yl)indole] | > 200 nM | 0.1 nM
29 | 1-[1-(4-fluorophenethyl)piperidin-4-yl]-6-(1,2,3-triazol-1-yl)methylindoline and 1-[1-(4-fluorophenethyl)piperidin-4-yl]-6-(1,2,3-triazol-2-yl)methylindoline [Example 212] | 0.36 nM | 0.82 nM
30 | CCN1CCC(N2CCc3ccc(NS(=O)(=O)c4ccc(F)cc4)cc32)CC1 [Example 238, 1-(1-ethylpiperidin-4-yl)-6-(4-fluorobenzenesulfonylamino)indoline] | > 200 nM | 86.6 nM
31 | CN(C)Cc1ccc2c(c1)N(C1CCN(CCc3ccc(F)cc3)CC1)CC2 [Example 200, 1-[1-(4-fluorophenethyl)piperidin-4-yl]-6-N,N-dimethylaminomethylindoline] | 234 nM | 4.84 nM
32 | CN1CCC(N2CCc3ccc(NS(=O)(=O)c4ccc(F)cc4)cc32)CC1 [Example 237, 1-(1-methylpiperidin-4-yl)-6-(4-fluorobenzenesulfonylamino)indoline] | > 200 nM | 30.4 nM
